Reference: ChEMBL document CHEMBL4312031, “Discovery of candesartan cilexetic as a novel neddylation inhibitor for suppressing tumor growth” (Eur J Med Chem, 2020)
The source made the active and inactive calls. The calls are words filed in the database; no cut-off is given here.

Legend:
MGC-803 = experiment: Antiproliferative activity against human MGC803 cells measured after 48 hrs by CCK8 assay; assay type: functional, cell-based; conditions: MGC-803, 48 h
[1] = biological target: T1, Ubiquitin-conjugating enzyme E2 C (Homo sapiens) (UniProt O00762); experiment: Inhibition of UbcH10 in human A549 cells assessed as reduction in protein ubiquitination by measuring Ubc10-ub adduct formation at 50 to 100 uM by Western blot analysis; assay type: cell-based
T1 sequence (whole entry): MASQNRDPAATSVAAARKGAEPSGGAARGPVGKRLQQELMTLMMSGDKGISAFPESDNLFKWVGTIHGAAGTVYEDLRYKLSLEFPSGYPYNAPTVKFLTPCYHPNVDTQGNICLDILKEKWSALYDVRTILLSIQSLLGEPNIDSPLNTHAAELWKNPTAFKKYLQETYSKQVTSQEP

A549 [2] = experiment: Cell cycle arrest in human A549 cells assessed as accumulation at G1 phase at 25 uM measured after 24 hrs by propidium iodide/RNase A staining based flow cytometry analysis (reference value: 63.84 %); assay type: functional
A549 [3] = experiment: Cell cycle arrest in human A549 cells assessed as accumulation at sub-G1 phase at 75 uM measured after 24 hrs by propidium iodide/RNase A staining based flow cytometry analysis (reference value: 0.89 %); assay type: functional
A549 [4] = experiment: Cell cycle arrest in human A549 cells assessed as accumulation at S phase at 75 uM measured after 24 hrs by propidium iodide/RNase A staining based flow cytometry analysis (reference value: 21.54 %); assay type: functional
BEAS-2B = experiment: Cytotoxicity against human BEAS2B cells after 48 hrs by CCK-8 assay; assay type: cell-based
A549 [5] = experiment: Antitumor activity against human A549 cells xenografted in nude mouse assessed as decrease in tumor weight at 60 mg/kg, ip qd measured after 22 days; assay type: functional, organism-based
EKVX = experiment: Antiproliferative activity against human EKVX cells measured after 48 hrs by CCK8 assay; assay type: functional, cell-based
[6] = biological target: T2, NEDD8-conjugating enzyme UBE2F (Homo sapiens) (UniProt Q969M7); experiment: Inhibition of UBE2F in human A549 cells assessed as decrease in Cullin5-Nedd8 adduct level at 50 uM measured after 6 to 12 hrs by Western blot analysis; assay type: cell-based
T2 sequence (whole entry): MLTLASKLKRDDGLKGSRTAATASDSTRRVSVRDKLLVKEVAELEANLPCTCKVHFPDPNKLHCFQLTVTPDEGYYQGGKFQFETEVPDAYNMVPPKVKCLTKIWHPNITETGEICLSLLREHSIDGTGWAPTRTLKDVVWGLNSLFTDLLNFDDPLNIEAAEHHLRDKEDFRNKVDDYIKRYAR

[7] = biological target: T3, NEDD8-conjugating enzyme Ubc12 (Homo sapiens) (UniProt P61081); experiment: Inhibition of UBC12 in human A549 cells assessed as decrease in Cullin2-Nedd8 adduct level measured after 6 to 12 hrs by Western blot analysis; assay type: cell-based
T3 sequence (whole entry): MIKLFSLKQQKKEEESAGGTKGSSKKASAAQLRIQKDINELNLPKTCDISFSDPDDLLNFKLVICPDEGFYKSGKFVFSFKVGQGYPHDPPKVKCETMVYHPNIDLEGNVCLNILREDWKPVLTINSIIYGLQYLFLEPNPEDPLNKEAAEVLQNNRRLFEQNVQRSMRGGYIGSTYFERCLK

[8] = biological target: T4, NEDD8/Cullin-1 (Homo sapiens) (UniProt Q13616+Q15843); experiment: Competitive inhibition of Nedd8-cullin1 (unknown origin) adduct formation at 12.5 to 50 uM assessed as increase in substrate Km by Lineweaver-Burk plot analysis; assay type: protein assay
T4 sequence (Q13616 whole entry, looked up): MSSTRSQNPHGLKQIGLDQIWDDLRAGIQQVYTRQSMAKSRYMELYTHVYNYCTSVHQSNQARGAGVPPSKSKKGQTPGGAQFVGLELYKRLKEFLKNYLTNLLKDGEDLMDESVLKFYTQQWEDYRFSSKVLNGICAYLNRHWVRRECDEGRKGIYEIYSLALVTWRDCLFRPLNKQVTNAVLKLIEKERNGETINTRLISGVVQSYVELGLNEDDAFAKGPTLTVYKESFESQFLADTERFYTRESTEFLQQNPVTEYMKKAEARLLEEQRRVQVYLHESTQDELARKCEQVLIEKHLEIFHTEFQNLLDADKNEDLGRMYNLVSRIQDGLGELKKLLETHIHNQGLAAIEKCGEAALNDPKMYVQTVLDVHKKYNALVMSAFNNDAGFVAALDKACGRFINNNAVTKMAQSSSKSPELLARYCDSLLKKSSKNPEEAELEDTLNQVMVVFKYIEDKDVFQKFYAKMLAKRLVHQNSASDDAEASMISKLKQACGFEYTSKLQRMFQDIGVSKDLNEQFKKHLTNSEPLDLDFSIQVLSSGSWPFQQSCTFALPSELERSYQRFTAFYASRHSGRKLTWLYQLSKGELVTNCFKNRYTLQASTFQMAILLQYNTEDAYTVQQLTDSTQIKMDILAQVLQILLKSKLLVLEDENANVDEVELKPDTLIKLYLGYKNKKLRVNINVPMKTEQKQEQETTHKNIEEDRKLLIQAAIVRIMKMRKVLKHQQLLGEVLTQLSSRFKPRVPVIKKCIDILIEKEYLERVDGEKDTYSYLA
T4 sequence (Q15843 whole entry, looked up): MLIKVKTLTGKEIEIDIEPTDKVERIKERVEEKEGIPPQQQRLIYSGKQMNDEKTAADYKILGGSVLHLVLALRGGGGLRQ

[9] = biological target: T4, NEDD8/Cullin-1 (Homo sapiens); experiment: Inhibition of Nedd8-cullin1 (unknown origin) assessed as decrease in cullin1-Nedd8 adduct formation at 25 to 50 uM preincubated for 10 mins followed by ATP addition and measured after 30 mins by immunoblot analysis; assay type: protein assay
[10] = biological target: T3, NEDD8-conjugating enzyme Ubc12 (Homo sapiens); experiment: Inhibition of UBC12 in human A549 cells assessed as decrease in Cullin4a-Nedd8 adduct level measured after 6 to 12 hrs by Western blot analysis; assay type: cell-based
MCF7 = experiment: Antiproliferative activity against human MCF7 cells measured after 48 hrs by CCK8 assay; assay type: functional, cell-based; conditions: MCF7, 48 h
A549 [11] = experiment: Cell cycle arrest in human A549 cells assessed as accumulation at G2 phase at 25 uM measured after 24 hrs by propidium iodide/RNase A staining based flow cytometry analysis (reference value: 12.69 %); assay type: functional
MKN-45 = experiment: Antiproliferative activity against human MKN45 cells measured after 48 hrs by CCK8 assay; assay type: functional, cell-based; conditions: MKN-45, 48 h
[12] = biological target: T3, NEDD8-conjugating enzyme Ubc12 (Homo sapiens); experiment: Inhibition of UBC12 in human A549 cells assessed as decrease in Cullin2-Nedd8 adduct level at 50 uM measured after 6 to 12 hrs by Western blot analysis; assay type: cell-based
A549 [13] = experiment: Induction of apoptosis in human A549 cells assessed as late apoptotic cells at 75 uM measured after 48 hrs by AnnexinV-FITC/propidium iodide staining based FACS analysis (reference value: 1.71 %); assay type: functional
[14] = biological target: T3, NEDD8-conjugating enzyme Ubc12 (Homo sapiens); experiment: Inhibition of UBC12 in human A549 cells assessed as decrease in Cullin1-Nedd8 adduct level at 50 uM measured after 6 to 12 hrs by Western blot analysis; assay type: cell-based
A549 [15] = experiment: Cell cycle arrest in human A549 cells assessed as accumulation at S phase at 50 uM measured after 24 hrs by propidium iodide/RNase A staining based flow cytometry analysis (reference value: 21.54 %); assay type: functional
A549 [16] = experiment: Inhibition of colony formation in human A549 cells measured after 10 days; assay type: functional, cell-based
A549 [17] = experiment: Cell cycle arrest in human A549 cells assessed as accumulation at S phase at 25 uM measured after 24 hrs by propidium iodide/RNase A staining based flow cytometry analysis (reference value: 21.54 %); assay type: functional
[18] = biological target: T5, NEDD8/NEDD8-conjugating enzyme Ubc12 (Homo sapiens) (UniProt P61081+Q15843); experiment: Competitive inhibition of Nedd8-Ubc12 (unknown origin) adduct formation assessed as decrease in Ubc12-Nedd8 adduct formation at 50 uM preincubated for 10 mins followed by ATP addition and measured after 30 mins by immunoblot analysis; assay type: protein-complex assay
A549 [19] = experiment: Cell cycle arrest in human A549 cells assessed as accumulation at G2 phase at 50 uM measured after 24 hrs by propidium iodide/RNase A staining based flow cytometry analysis (reference value: 12.69 %); assay type: functional
16HBE14o- = experiment: Cytotoxicity against human 16HBE cells after 48 hrs by CCK-8 assay; assay type: cell-based
A549 [20] = experiment: Induction of apoptosis in human A549 cells assessed as late apoptotic cells at 50 uM measured after 48 hrs by AnnexinV-FITC/propidium iodide staining based FACS analysis (reference value: 1.71 %); assay type: functional
[21] = biological target: T5, NEDD8/NEDD8-conjugating enzyme Ubc12 (Homo sapiens); experiment: Inhibition of Nedd8-Ubc12 (unknown origin) assessed as decrease in Ubc12-Nedd8 adduct formation at 50 uM preincubated for 10 mins followed by ATP addition and measured after 30 mins by immunoblot analysis; assay type: protein-complex assay
PLC = experiment: Antiproliferative activity against human PLC cells measured after 48 hrs by CCK8 assay; assay type: functional, cell-based
A549 [22] = experiment: Cell cycle arrest in human A549 cells assessed as accumulation at G1 phase at 75 uM measured after 24 hrs by propidium iodide/RNase A staining based flow cytometry analysis (reference value: 63.84 %); assay type: functional
Huh-7 = experiment: Antiproliferative activity against human HuH7 cells measured after 48 hrs by CCK8 assay; assay type: functional, cell-based; conditions: Huh-7, 48 h

CCOc1nc2cccc(C(=O)OC(C)OC(=O)OC3CCCCC3)c2n1Cc1ccc(-c2ccccc2-c2nn[nH]n2)cc1 (stereo not given) [CANDESARTAN CILEXETIL]
IC50 (MGC-803): 57.1 µM | inhibition [1]: inactive | Activity (A549 [2]): 63.02% | Activity (A549 [3]): 30.45% | Activity (A549 [4]): 19.74% | IC50 (BEAS-2B): 89.9 µM | Activity (A549 [5]): Active | IC50 (EKVX): > 100 µM | inhibition [6]: Active | inhibition [7]: Dose-dependent effect | inhibition [8]: Active | inhibition [9]: Active | inhibition [10]: Dose-dependent effect | IC50 (MCF7): > 100 µM | Activity (A549 [11]): 6.48% | IC50 (MKN-45): 68.9 µM | inhibition [12]: Active | Activity (A549 [13]): 14.26% | inhibition [14]: Active | Activity (A549 [15]): 11.53% | inhibition (A549 [16]): Dose-dependent effect | Activity (A549 [17]): 18.37% | inhibition [18]: Active | Activity (A549 [19]): 6.79% | IC50 (16HBE14o-): > 100 µM | Activity (A549 [20]): 13.36% | inhibition [21]: 100% | IC50 (PLC): 60.2 µM | Activity (A549 [22]): 40.44% | IC50 (Huh-7): > 100 µM
